From US11746103B2, “ALK-5 inhibitors and uses thereof” (Sumitomo Pharma Oncology, Inc., priority 2020, dated 2023)
Entries after “also recorded” stand apart in the source; their conditions may differ.

How the values were obtained:
[1] = Method: Female, athymic nude mice (aged 6-8 weeks) were randomized to one of 12 study arms (n=3 per arm) (Table 16) and weighed prior to dosing. Mice were dosed via oral gavage either once daily (QD), or bi-daily (BID) for five days. […] The vehicle for PF-06952229 (PF) was 10% DMSO, 40% PEG300, 5% tween-80, 45% saline. For the vehicle alone group in this study, the PF-06952229 vehicle was used. At the end of each day for 10 days, mice were weighed, and symptoms of toxicity (if present) were recorded. A qualitative determination of overall toxicity was made based on the number and severity of symptoms for each cohort. The safety margin was determined at the end of day 10 based on the following equation: (maximum tolerated dose)/(minimum effective dose).
[2] = test system: human CD4+CD45RA+ naïve T cells; experiment: In vitro Treg differentiation study; format: cell-based; details: CD3/CD28+IL2+TGFβ, 5 days
Method: The effect of EX-11 on Treg differentiation was evaluated using human CD4^+CD45RA^+ naïve T cells from Lonza. CD4^+/CD45RA^+ naïve T cells were treated with EX-11, CD3/CD28 ([…] Technologies) and 10 ng/ml of IL-2 (Thermo Fisher Scientific) with or without 5 ng/ml TGFβ (R&D Systems) in ImmunoCult™-XF T cell expansion medium for 5 days. Flow cytometry was performed using anti-human FoxP3 staining kit (BD biosciences) to evaluate the frequency of CD4^+CD25^+Foxp3^+ Treg cells.

[3] = test system: EMT6 tumors; experiment: Immunohistochemistry (CD31, CD45) of EMT6 tumors; format: in vivo, mouse
Excerpt: EX-11 is an ALK5 inhibitor that has been proposed to affect multiple processes in the tumor microenvironment through downregulation of TGF-β signaling, including vasculature remodeling and leukocyte infiltration. The objective of this study was to compare the levels of CD31 and CD45, subject to different treatment conditions in 4T1, EMT6, and S91 tumors. CD31 is an established marker of vascular differentiation, and CD45 is an established marker of leukocytes.
For IHC analyses, tumors from three syngeneic models of cancer were used: • 1) Example L: 4T1 (triple-negative breast cancer [TNBC]); Balb/c mice • 2) Example K: EMT6 (TNBC); Balb/C mice • 3) Example M: S91 (melanoma); DBA/2 mice
Tumors were fixed in formalin for 48 hours, then stored in […] prior to paraffin embedding. Embedded blocks were sectioned at […] and placed on glass slides for IHC staining.
Leica Biosystems Bond Software and Leica Bond Rx Research Stainer were used per protocol to stain tissue sections. […] Images were manually scored by a pathologist, blinded to treatment information. […] CD45 was scored by calculating the number of CD45-positive cells divided by the total number of viable nucleated cells within the whole tumor region(s). CD31 density was scored by calculating the total number of CD31 positive vessels divided by the whole tumor area (mm^2).

[4] = test system: ES-2-luc cells; experiment: Cachexia model (ES-2 clear cell carcinoma); format: in vivo, mouse; details: 150 mg/Kg BID
Excerpt: TGF-β1 signaling regulates ovarian cancer progression during initial carcinogenesis, tumor dissemination, and reestablishment of ascites through peritoneal cavity. Clear cell carcinoma is a specifically aggressive and therapy-resistant subtype of epithelial ovarian cancer. ES-2 clear cell carcinoma in vivo model was used to test efficacy of EX-11 in reducing ovarian tumor burden as determined by ascites fluid volume assessment. Because ALK5 signaling can regulate muscle growth and wasting, the efficacy of EX-11 in preventing ovarian cancer-induced cachexia was tested. Muscle health was assessed using histological evaluation of heart muscle tissue, and by comparison of gross weight of hind limb between the different treatment groups.
Sixteen-week-old female athymic nude mice were injected with two million ES-2-luc cells. […]
Mortality was recorded for animals found dead in the cage, and for the animals sacrificed based on humane end point based on main three criteria—loss of mobility and response, wasting with pronounced ascites fluid buildup, and palpable drop in body temperature (animals were assessed as cold to touch when handled in gloves).
On study day 22, the remaining surviving animals in the vehicle group were determined moribund, and the study was terminated based on humane end point criteria. […]

[5] = test system: cancer associated fibroblast (CAF) genes in human primary dermal fibroblasts; experiment: CAF gene suppression assay (qPCR); format: cell-based
Method: Human primary dermal fibroblasts (ATCC) were divided into four groups: DMSO-TGFβ, DMSO+TGFβ (1 ng/mL), 30 nM EX-11+TGFβ (1 ng/mL), and 300 nM EX-11+TGFβ (1 ng/mL). Cells were treated for 24 hours, then mRNA was extracted, quantified, and reverse transcribed. qPCR was run for the following cancer associated fibroblast (CAF) genes: ACTA2, FAP, ITGB1, CD9, TAGLN, ANTXR1, SOC1, Lamp5, Col1A2, and TGFβ1, using the TaqMan system in a Quant Studio.

[6] = test system: EMT6 tumors; experiment: Combination of EX-11 and abraxane in EMT6 TNBC syngeneic model; format: in vivo, mouse; details: abraxane 30 mg/kg IP Q7d; EX-11 150 mg/kg PO BID
Excerpt: Abraxane (product of Bristol Myers Squibb) was purchased from St Josef Hospital (Freiburg, Germany). The vehicle for abraxane was 0.9% NaCl.

Cc1cccc2c(Nc3ccnc(Nc4cccc(N5CCOCC5)c4)n3)cnnc12 [EX-11, N4-(8-methylcinnolin-4-yl)-N2-(3-morpholinophenyl)pyrimidine-2,4-diamine]
minimum effective dose ([1]; BID, based on prior studies with EX-11): 150 mg/kg
safety margin (maximum tolerated dose)/(minimum effective dose) ([1]; female, athymic nude, mouse, in vivo, 10 days): ≥ 6.7 fold
Treg frequency (CD4+CD25+Foxp3+ Treg cells as percentage of cells not treated with TGFβ) ([2]; 30 nM): 480%
Treg frequency (CD4+CD25+Foxp3+ Treg cells as percentage of cells not treated with TGFβ) ([2]; 300 nM): 342%
Treg frequency (CD4+CD25+Foxp3+ Treg cells as percentage of cells not treated with TGFβ) ([2]; 3000 nM): 126%
CD31 staining (blood vessel density) [3]: no difference in CD31 staining
CD45 (percentage of CD45+ cells) ([3]; vs anti-PD-1 and vehicle groups): increased
ascites fluid volume compared to vehicle [4]: reduction in total fluid volume; also recorded: reduced ascites fluid volume
whole hind limb weight compared to vehicle [4]: recorded higher; also recorded: improved hind limb weight retention
TAGLN, Lamp5 and TGFβ1 expression ([5]; 300 nM + TGFβ 1 ng/mL): returned to baseline
decrease of FAP, SDC1 and Col1A2 expression from baseline ([5]; 300 nM + TGFβ 1 ng/mL): 20-30%
TGFβ-induced upregulation of CAF gene expression ([5]; 30 and 300 nM + TGFβ 1 ng/mL, 24 hours, all genes except CD9): dose dependently reversed
tumor volume compared to vehicle [6]: did not show efficacy compared to vehicle
